{"source": "patent US12016899B2", "about": "“Compositions comprising Sel1-derived peptides and methods of treatment/prevention of excess oxalate levels and associated conditions/diseases therewith” (The University of Chicago, priority 2018, dated 2024)", "molecules": {"B1": {"name": "301: Sel1 protein 301 (54 kDa) of Oxalobacter formigenes (protein)", "chain": "MSSVIADSQQPAVSEENANKIILDEEKAVIQCNERYKTENDEKGDEETVSWCRKAAKSGNAEAQYLFGMLVYDGRGVQQDNCVAMLWWMKAAEQNHAKALVMLGNLHRKGQCIAENYPKAIAYWKRAAVQNNVWAYHNLGTAYYDGIGVDKNPHEAVRWWKKAAELGFPESQNNLGALYNDGNGVDRDYQEAVFWYRKSALQGDELGQYNLGVAYYYGRGIKKDFSEAVSWYKKSAEQDYAQAQHNLGVTYYEGEGIKKDYAKAVYWWKKAAEQGIPQSQYNLGIAYEEGWGAEKNPENAVFWYRKAAEQGHADAQNRLGIAYRYGTGVRKNPALSVKWLEKAAKQGLARAQFNLGKTFYIGAGINKNTDKAVYWFIKAANQGFTEAQAYIGMIYFKGKYVAKNEKKGFYWLKKAAEKDSAKAQAFLGALYIAGNEVKPNIKEGVALTKKAALQGNYEAQTLLGFCYENGLEVKKDLIAAYALYLSASPHFDFAEKARLDLERKLSEQEIAKAISVNTAKLFE"}, "B2": {"name": "318: Sel1 protein 318 (52 kDa) of Oxalobacter formigenes (protein)", "chain": "MKRRVLYGVLFAVLAGCSAGALASVSGLSDGLAQLERRQFESAYATLMPEAEKGNPRAALEVGKLLLTGRGVAKDEAAAVKWLLVAADSGNRDAQYMLGAMSVEGIGLPKDSQVALTWLSKAAAQGDARAKTALGILMQSAGPGSQHTEQAARWFERAAASGEPEAQRRWALMLASGRGVAKNEGEALKWFKKAAVAGDVEAQRNLGIMLSTGKGVTGGKPDFAEAARWYGLAAKKGDAKAQYGLGILYAKGQGVAPDQEKALILYRMAATQGLATAEYAVGLAYAYGRGTAQNDVKAADWFEAAAQQGVVRAQYNLALMLEAGRGRPVDTVAASKWFLMAAEKGLREAQYNMGYHYAEGKGVPRDQGKAVFWYEKAAAAGDVKAQYNLGMLYLNGVNGKADDEKAAFFYRMAAGAGYGPAMYRLAVLYEEGRGVKQSYQLAGEWYERADLAAKVKIDEAMKKNPHPFVQRTLQVPDDLNQSSDKLAGH"}}, "key": {"[1]": {"system": "human intestinal Caco2-BBE (C2) cells", "assay": "14C-oxalate influx (oxalate transport) by Caco2-BBE (C2) cells", "assay_type": "cell-based", "settings": "for effect of trace element added to P8 or P9 on oxalate transport, in words: C2 cells, versus peptide alone", "experimental": "Toward this end, Of culture conditioned medium (CM) was prepared as recently reported (Ref. 4; herein incorporated by reference in its entirety) and human intestinal Caco2-BBE (C2) cells were used to evaluate the effects of Of CM on intestinal oxalate transport. Apical oxalate uptake by C2 cells was measured by imposing an outward Cl gradient by removing extracellular Cl [Cli>Clo] (Refs. 3, 4, 14; incorporated by reference in their entireties) and measuring DIDS (anion exchange inhibitor)-sensitive influx of 14C-oxalate in exchange for intracellular Cl [i.e. apical Cl-oxalate exchange activity, ≥49% of which is mediated by the oxalate transporter SLC26A6 (A6) in C2 cells (4, 12))].\nThe inventors sought to identify trace elements to better stimulate oxalate transport by facilitating the binding of P8 and/or P9 to a cell surface receptor. The inventors analyzed combinations of P8 and P9 alone or with aluminum, zinc, or magnesium by measuring C14 oxalate transport in C2 cells."}, "[2]": {"system": "human sigmoid colon organoid", "assay": "oxalate transport by human sigmoid colon organoid", "assay_type": "cell-based", "experimental": "(§1) Although the transformed C2 cells resemble the native epithelium, they don't fully recapitulate the in vivo physiological responses. Primary stem-cell derived intestinal organoids (Orgs) were recently established as an ex vivo model of the intestinal epithelium, and they mimic the full spectrum of physiological responses in vivo. Therefore, experiments were conducted during development of embodiments herein to confirm the C2 findings in colonic organoids.\n(§2) To recapitulate the findings in vivo, primary stem-cell derived intestinal organoids (Org) were used which have been established as an ex vivo model of the intestinal epithelium with a full spectrum of physiological responses found in vivo (Ref. 35; incorporated by reference in its entirety). A human sigmoid colonic Org (from a healthy individual) was grown and maintained as previously reported (Ref. 34; incorporated by reference in its entirety). Org cells were plated onto collagen-coated transwell filters and formed monolayers. Monolayer confluency and differentiation was confirmed by transepithelial electrical resistance measurements (Ref. 34; incorporated by reference in its entirety)."}, "[3]": {"system": "human distal colon organoid", "assay": "oxalate transport by human distal colon organoid", "assay_type": "cell-based", "experimental": "as §1, §2"}, "[4]": {"system": "human intestinal Caco2-BBE (C2) cells", "settings": "cited from earlier work; for stimulation of oxalate transport by cells (Sel1 proteins), in words: PCT/US18/14494"}, "human ileum organoid": {"system": "human ileum organoid", "assay": "oxalate transport by human ileum organoid", "assay_type": "cell-based", "settings": "500 μM DIDS; ileum Org"}}, "note": "Entries after “also recorded” stand apart in the source; their conditions may differ. Primed or numbered codes have the meaning given here. Where no end group is shown, it is not given here. [ ]: non-standard residue; d: D form. PEG6′ = Peg: PEG6 in place of glycine"}
{"molecule": "Ac-AKAQYGLGILYAKGQGVAPDQEKALILYRMAATQG [Peptide P9-Ac]", "values": [{"measurement": "stimulation of oxalate transport (14C-oxalate influx) by C2 cells, in words", "setting": "[1]; Caco2-BBE cells, listed as P9 with N-terminal acetylation", "result": "significantly stimulate"}, {"measurement": "stimulation of oxalate transport by sigmoid colon organoid, in words", "setting": "[2]", "result": "significantly stimulate"}, {"measurement": "stimulation of oxalate transport by distal colon organoid, in words", "setting": "[3]", "result": "significantly stimulate"}]}
{"molecule": "ESQNNLGALYNDGNGVDRDYQEAVFWYRKSALQGD [Peptide P6]", "values": [{"measurement": "stimulation of oxalate transport (14C-oxalate influx) by C2 cells, in words", "setting": "[1]; Caco2-BBE cells", "result": "no effects"}]}
{"molecule": "O=S(=O)(NCCNC/C=C/c1ccc(Br)cc1)c1cccc2cnccc12", "note": "[Peptide H89, H89, reference compound]", "values": [{"measurement": "effect of pretreatment on CM-induced oxalate transport", "setting": "[4]; PKA inhibitor pretreatment, Ref. 4", "result": "completely blocked"}]}
{"molecule": "DAQYMLGAMSVEGIGLPKDSQVALTWLSKAAAQGD-Am (DAQYMLGAMSVEGIGLPKDSQVALTWLSKAAAQGD-NH2) [Peptide P8-Am]", "values": [{"measurement": "stimulation of oxalate transport (14C-oxalate influx) by C2 cells, in words", "setting": "[1]; Caco2-BBE cells, listed as P8 with C-terminal amidation", "result": "significantly stimulate"}]}
{"molecule": "AKAQYGLGILYAKGQ(d-alanine)VAPDQEKALILYRMAATQG (AKAQYGLGILYAKGQ[dA]VAPDQEKALILYRMAATQG) [Peptide P9-Daa]", "values": [{"measurement": "stimulation of oxalate transport (14C-oxalate influx) by C2 cells, in words", "setting": "[1]; Caco2-BBE cells, listed as P9 with G16 replaced with D-alanine", "result": "similarly stimulated; also recorded: significantly stimulate"}, {"measurement": "stimulation of oxalate transport by sigmoid colon organoid, in words", "setting": "[2]", "result": "significantly stimulate"}, {"measurement": "stimulation of oxalate transport by distal colon organoid, in words", "setting": "[3]", "result": "significantly stimulate"}]}
{"molecule": "AKAQYGLGILYAKGQGVAPDQEKALILYRMAATQG-Am (AKAQYGLGILYAKGQGVAPDQEKALILYRMAATQG-NH2) [Peptide P9-Am]", "values": [{"measurement": "stimulation of oxalate transport (14C-oxalate influx) by C2 cells, in words", "setting": "[1]; Caco2-BBE cells, listed as P9 with C-terminal amidation", "result": "significantly stimulate"}, {"measurement": "stimulation of oxalate transport by sigmoid colon organoid, in words", "setting": "[2]", "result": "significantly stimulate"}, {"measurement": "stimulation of oxalate transport by distal colon organoid, in words", "setting": "[3]", "result": "significantly stimulate"}]}
{"molecule": "QSQYNLGIAYEEGWGAEKNPENAVFWYRKAAEQGH [Peptide P4]", "values": [{"measurement": "stimulation of oxalate transport (14C-oxalate influx) by C2 cells", "setting": "[1]; Caco2-BBE cells", "result": 1.5, "unit": "fold"}]}
{"molecule": "AKAQY(Peg)L(Peg)ILYAK(Peg)Q(Peg)VAPDQEKALILYRMAATQ(Peg) (AKAQY[PEG6′]L[PEG6′]ILYAK[PEG6′]Q[PEG6′]VAPDQEKALILYRMAATQ[PEG6′]) [Peptide P9-Peg]", "values": [{"measurement": "stimulation of oxalate transport (14C-oxalate influx) by C2 cells, in words", "setting": "[1]; Caco2-BBE cells, listed as P9 with all glycines replaced with PEG6", "result": "similarly stimulated; also recorded: significantly stimulate"}]}
{"molecule": "ARAQFNLGKTFYIGAGINKNTDKAVYWFIKAANQG [Peptide P5]", "values": [{"measurement": "stimulation of oxalate transport (14C-oxalate influx) by C2 cells, in words", "setting": "[1]; Caco2-BBE cells", "result": "no effects"}]}
{"molecule": "[Cl-].[Cl-].[Zn+2]", "note": "[zinc chloride]", "values": [{"measurement": "effect of trace element added to P8 or P9 on oxalate transport, in words", "setting": "[1]", "result": "not"}]}
{"molecule": "[Al]", "note": "[aluminum]", "values": [{"measurement": "effect of trace element added to P8 or P9 on oxalate transport, in words", "setting": "[1]", "result": "did not result in increased oxalate transport"}]}
{"molecule": "DAQYMLGAMSVEGI(d-alanine)LPKDSQVALTWLSKAAAQGD (DAQYMLGAMSVEGI[dA]LPKDSQVALTWLSKAAAQGD) [Peptide P8-Daa]", "values": [{"measurement": "stimulation of oxalate transport (14C-oxalate influx) by C2 cells, in words", "setting": "[1]; Caco2-BBE cells, listed as P8 with G15 replaced with D-alanine", "result": "similarly stimulated; also recorded: significantly stimulate"}]}
{"molecule": "O=S(=O)(O)c1cc(N=C=S)ccc1C=Cc1ccc(N=C=S)cc1S(=O)(=O)O", "note": "[DIDS, reference compound]", "values": [{"measurement": "inhibition of 14C-oxalate influx", "setting": "[2]; 100 μM DIDS, sigmoid colonic Org", "result": "~70", "unit": "%"}, {"measurement": "inhibition of oxalate transport", "setting": "human ileum organoid", "result": "~80", "unit": "%"}]}
{"molecule": "Ac-DAQYMLGAMSVEGIGLPKDSQVALTWLSKAAAQGD [Peptide P8-Ac]", "values": [{"measurement": "stimulation of oxalate transport (14C-oxalate influx) by C2 cells, in words", "setting": "[1]; Caco2-BBE cells, listed as P8 with N-terminal acetylation", "result": "significantly stimulate"}]}
{"molecule": "DAQYMLA(Peg)MSVE(Peg)I(Peg)LPKDSQVALTWLSKAAAQ(Peg)D (DAQYMLA[PEG6′]MSVE[PEG6′]I[PEG6′]LPKDSQVALTWLSKAAAQ[PEG6′]D) [Peptide P8-Peg]", "values": [{"measurement": "stimulation of oxalate transport (14C-oxalate influx) by C2 cells, in words", "setting": "[1]; Caco2-BBE cells, listed as P8 with all glycines replaced with PEG6", "result": "similarly stimulated; also recorded: significantly stimulate"}]}
{"molecule": "B1", "values": [{"measurement": "stimulation of oxalate transport by cells (Sel1 proteins), in words", "setting": "[4]", "result": "significantly stimulating; also recorded: most potent stimulators"}]}
{"molecule": "B2", "values": [{"measurement": "stimulation of oxalate transport by cells (Sel1 proteins), in words", "setting": "[4]", "result": "significantly stimulating; also recorded: most potent stimulators"}]}
